Test [1] deals with 5-hydroxytryptamine induced bronchoconstriction. Put plainly: Inhibition of 5-hydroxytryptamine induced bronchoconstriction in anaesthetised, artificially respired guinea pig (Konzett-Rossler preparation). The class given is in vivo. To be noted: Cavia porcellus, intravenous. The method, then: 1. The compounds were examined for their ability to inhibit 5-hydroxytryptamine induced bronchoconstriction in the anaesthetised, artificially respired guinea pig (Konzett-Rossler preparation). The compounds were administered intravenously.

The subject of test [2] is bronchoconstriction induced by an histamine aerosol. Put plainly: Protection of conscious guinea pigs against bronchoconstriction induced by histamine aerosol (Herxheimer test). The class given is in vivo, guinea pig. To be noted: 10 μg/ml, 2 minutes after dosing. How it is done:
2. The compounds were examined for their ability to protect conscious guinea pigs against bronchoconstriction induced by an histamine aerosol (Herxheimer test). In these experiments the compounds were administered by aerosol.

Each structure is given as a SMILES string.

By ED50 is commonly meant the dose that gives a 50% effect, or the effect in half of the subjects.

With `CCCCCCC(C)(O)CCN1C(=O)N(C)C(=O)C1CCCCCCCNCC(=O)OC` (stereo not drawn) [Compound 9, 1-(3'-hydroxy-3'-methyl-n-nonyl)-3-methyl-5-5-[7'-(N-methoxycarbonylmethyl)amino-n-heptyl]-hydantoin], the ED50 in test [1] amounted to 0.066 mg/kg.
`CCCCCCC(C)(O)CCN1C(=O)N(C)C(=O)C1CCCCCCC(N)=O` (stereo not drawn) [Compound 3, 1-(3'-hydroxy-3'-methyl-n-nonyl)-3-methyl-5-(6"-amidoyl-n-hexyl) hydantoin] came in with an ED50 in test [1] of 0.108 mg/kg. The “increase in pre-convulsive coughing time” value in test [2] is 107%.
As for `CCCCCCC(C)(O)CCN1C(=O)N(C)C(=O)C1CCCCCCCNCCC(=O)OC` (stereo not drawn) [Compound 5, 1-(3'-hydroxy-3'-methyl-n-nonyl)-3-methyl-5-(7"-(2'''-methoxycarbonylethyl)amino-n-heptyl) hydantoin], it took a dose of 0.095 mg/kg to reach the 50% effect level in test [1] (ED50).
Same read-out and setting: as for `CCCCCCC(C)(O)CCN1C(=O)N(C)C(=O)C1CCCCCCCN(CC(=O)OC)CC(=O)OC` (stereo not drawn) [Compound 10, 1-(3'-hydroxy-3'-methyl-n-nonyl)-3-methyl-5-{7'-[N,N-bis(methoxycarbonylmethyl)amino]-n-heptyl}hydantoin], the figure is 0.0805 mg/kg.
With `CCCCCCC(C)(O)CCN1C(=O)N(C)C(=O)C1CCCCCCC(N)=NO` (stereo not drawn) [Compound 2, 1-(3'-hydroxy-3'-methyl-n-nonyl)-3-methyl-5-(6"-amidoxyl-n-hexyl)-hydantoin], the ED50 in test [1] turned out to be 0.032 mg/kg. In addition, the “increase in pre-convulsive coughing time” value in test [2] is 47.5%.
Compound `CCCCCCC(C)(O)CCN1C(=O)N(C)C(=O)C1CCCCCCCN(CCC(=O)OC)CCC(=O)OC` (stereo not drawn) [Compound 6] showed an ED50 in test [1] of 0.079 mg/kg.
`CCCCCCC(C)(O)CCN1C(=O)N(C)C(=O)C1CCCCCCCN` (stereo not drawn) [Compound 1, 1-(3'-hydroxy-3'-methyl-n-nonyl)-3-methyl-5-(7"-amino-n-heptyl)-hydantoin] showed a median effective dose (ED50) in test [1] of 0.0023 mg/kg. This ED50 is about 34-fold lower than that of the compound before.

These data come from patent publication US4315022A, “Terminal amino prostaglandin analogues” (Beecham Group Limited, priority 1979, dated 1982).
